Laboratory results: US5858738A, “Ermophilane sesquiterpenoids as HIV intergrase inhibitors” (Merck & Co., Inc., priority 1997, dated 1999)

Key:
HIV-1 integrase = target: T1, HIV-1 integrase (Human immunodeficiency virus type 1 group M subtype B, UniProt P04585); assay: HIV Integrase Substrate Cleavage and Integration Assay (trimming of the 3' end of HIV long terminal repeat terminus); type: biochemical; details: inhibition of HIV integrase substrate cleavage; inhibitor 0.1 to 100 μM
T1 construct: HIV-1 integrase
Experimental: HIV Integrase Substrate Cleavage and Integration Assay
An assay for trimming of the 3' end of HIV long terminal repeat terminus by HIV-1 integrase was conducted according to LaFemina, R. L. et al., J. Virol 10, 5624 (1991), herein incorporated by reference for these purposes. To assay inhibition of HIV integrase substrate cleavage, the reaction was conducted with inhibitor having various concentrations in the range of 0.1 to 100 μM.

[1] = target: T2, HIV Integrase/donor (HIV) DNA complexes (Human immunodeficiency virus type 1 group M subtype B, UniProt P04585); assay: Assay for Assembly of HIV Integrase/donor (HIV) DNA Complexes; details: inhibition of assembly or binding to immobilized donor (HIV) DNA; inhibitor 0.1 to 100 μM
T2 construct: strand transfer by HIV integrase
Experimental: Assay for Assembly of HIV Integrase/donor (HIV) DNA Complexes
An assay measuring the binding of HIV Integrase to immobilized donor (HIV) DNA was conducted according to Wolfe, A. L. et al., J. Virol. 70, 1424 (1996), herein incorporated by reference for these purposes. To assay inhibition of such assembly or binding, the reaction was conducted with inhibitor having various concentrations in the range of 0.1 to 100 μM. Results follow.

HIV integrase = target: T3, HIV integrase (Human immunodeficiency virus type 1 group M subtype B, UniProt P04585); assay: Strand Transfer Assay for HIV Integrase (ligation of processed donor (HIV) DNA to nicked host DNA); type: biochemical; details: inhibition of strand transfer; inhibitor 0.1 to 100 μM
T3 construct: strand transfer by HIV integrase
Experimental: Strand Transfer Assay for HIV Integrase
A microtiter assay for ligation of processed donor (HIV) DNA to unspecific, nicked host DNA was conducted according to Hazuda, D. J. et al., Nucl. Acids, Res. 22, 1121 (1994), herein incorporated by reference for these purposes. To assay inhibition of such strand transfer by HIV integrase, the reaction was conducted with inhibition having various concentrations in the range of 0.1 to 100 μM.

Compound C=C(C=O)C1CC2(C)C(=CC1=O)C(OC(=O)C(C)=CC(C)CCCC)CCC2C(=O)O (stereo not drawn) [Compound A] has an IC50 (HIV-1 integrase) of 5 to 10 µM, an IC50 [1] of 10 µM and an IC50 (HIV integrase) of 5 to 10 µM.
